Measurements from patent US20260217729A1, “HALOGEN-S[…] AMIDE DERIVATIVE, PREPARATION METHOD THEREFOR, AND USE THEREOF” (HANGZHOU ADCORIS BIOPHARMA CO., LTD, priority 2023, published 2026).
Like-named read-outs stand apart in the source and are kept apart here.

Experiments:
Format in all cases: cell-based
[1] = test system: human lung cancer cells NCI-H1975; assay: Tumor cell growth inhibitory activity (CCK-8), NCI-H1975; details: 72 h incubation, read-out: IC50 for inhibiting the growth of tumor cells, NCI-H1975
Experimental: (§1) Human esophageal cancer cells OE33, human breast cancer cells MDA-MB-231, human gastric cancer cells NCI-N87, human lung cancer cells NCI-H1975, human esophageal cancer cells TE12, human breast cancer cells SK-BR-3, etc., were cultured in RPMI1640 (Cellmax) supplemented with 10% fetal bovine serum (Cellmax). Tumor cells in the exponential growth phase were diluted to a concentration of 1×10^5 cells/mL with culture medium and added to 96-well cell culture plates at 100 μL per well, then returned and incubated overnight in a 37° C. incubator with 5% CO2. On the following day, the compounds were diluted to concentrations of 10000 nM, 2000 nM, 400 nM, 80 nM, 16 nM, 3.2 nM, 0.64 nM, and 0.13 nM with culture medium, and the diluted compounds were added to the 96-well cell culture plates at 2 μL per well, with three replicate wells for each concentration. Negative control and blank control groups without addition of compounds were added with 2 μL of the dilution liquid per well. After the addition of the compounds, the plates were returned to the 37° C. incubator with 5% CO2 to continue the incubation for 72 h. After the incubation, the cell culture plates were removed, and the culture medium in the plates was aspirated using a pipette. Then, 100 μL of culture medium containing 10% CCK-8 was added to each well, and the plates were incubated at 37° C. for 3 h. After the incubation, the plates were removed, kept in the dark, and placed in an ELISA plate. Absorbance was measured at 630 nm as the reference wavelength and 450 nm as the test wavelength. Based on the absorbance values, the IC50 values (Table 1) were calculated using the four-parameter logistic regression method in GraphPad.

[2] = test system: human esophageal cancer cells TE12; assay: Tumor cell growth inhibitory activity (CCK-8), TE12; details: 72 h incubation, read-out: IC50 for inhibiting the growth of tumor cells, TE12
Experimental: as §1

[3] = test system: human breast cancer cells MDA-MB-231; assay: Tumor cell growth inhibitory activity (CCK-8), MDA-MB-231; details: MDA-MB-231 cells, 72 h incubation, read-out: IC50 for inhibiting the growth of tumor cells, MDA-MB-231
Experimental: as §1

[4] = test system: human gastric cancer cells NCI-N87; assay: Tumor cell growth inhibitory activity (CCK-8), NCI-N87; details: 72 h incubation, read-out: IC50 for inhibiting the growth of tumor cells, NCI-N87
Experimental: as §1

[5] = test system: Human esophageal cancer cells OE33; assay: Tumor cell growth inhibitory activity (CCK-8), OE33; details: 72 h incubation, read-out: IC50 for inhibiting the growth of tumor cells, OE33
Experimental: as §1

[6] = test system: human breast cancer cells SK-BR-3; assay: Tumor cell growth inhibitory activity (CCK-8), SK-BR-3; details: SK-BR-3 cells, 72 h incubation, read-out: IC50 for inhibiting the growth of tumor cells, SK-BR-3
Experimental: as §1

CC[C@@]1(O)C(=O)OCc2c1cc1n(c2=O)Cc2c-1nc1cc(F)c(C)c3c1c2[C@@H](NC(=O)C(F)C(N)=O)CC3 (stereo partly drawn) [Compound 1, N-(2′-fluoro-3′-amino-3′-oxo-propanoyl) exatecan]
IC50 [1]: 598 nM | IC50 [2]: 341 nM | IC50 [3]: > 1000 nM | IC50 [4]: 12.1 nM | IC50 [5]: 37.8 nM | IC50 [6]: 18 nM

CC[C@@]1(O)C(=O)OCc2c1cc1n(c2=O)Cc2c-1nc1cc(F)c(C)c3c1c2[C@@H](NC(=O)CNCC(F)(F)F)CC3 [Compound 2, N—(N-(2′-trifluoroethyl)aminoacetyl)exatecan]
IC50 [1]: 47.3 nM | IC50 [2]: 12.7 nM | IC50 [3]: 238 nM | IC50 [4]: 0.443 nM | IC50 [5]: 1.09 nM | IC50 [6]: 1 nM

CC[C@@]1(O)C(=O)OCc2c1cc1n(c2=O)Cc2c-1nc1cc(F)c(C)c3c1c2[C@@H](NC(=O)C(N)C(F)(F)F)CC3 (stereo partly drawn) [Compound 3, 2′-amino-3′,3′,3′-trifluoropropanoyl exatecan]
IC50 ([1]; Homo sapiens): 56.2 nM | IC50 ([2]; Homo sapiens): 21.1 nM | IC50 ([3]; Homo sapiens): 262 nM | IC50 ([4]; Homo sapiens): 1.74 nM | IC50 ([5]; Homo sapiens): 5.61 nM | IC50 ([6]; Homo sapiens): 3.01 nM

CC[C@@]1(O)C(=O)OCc2c1cc1n(c2=O)Cc2c-1nc1cc(F)c(C)c3c1c2[C@@H](NC(=O)[C@@H]1CC(F)(F)CN1)CC3 [Compound 4, 4′,4′-difluoroprolyl exatecan]
IC50 ([1]; Homo sapiens): 40.6 nM | IC50 ([2]; Homo sapiens): 11.2 nM | IC50 ([3]; Homo sapiens): 200 nM | IC50 ([4]; Homo sapiens): 0.101 nM | IC50 ([5]; Homo sapiens): 0.755 nM | IC50 ([6]; Homo sapiens): 0.35 nM

CC[C@@]1(O)C(=O)OCc2c1cc1n(c2=O)Cc2c-1nc1cc(F)c(C)c3c1c2[C@@H](NC(=O)C(F)F)CC3 [Compound 5, 2′,2′-difluoroacetyl exatecan]
IC50 ([1]; Homo sapiens): 13.7 nM | IC50 ([2]; Homo sapiens): 18.5 nM | IC50 ([3]; Homo sapiens): 403 nM | IC50 ([4]; Homo sapiens): 0.873 nM | IC50 ([5]; Homo sapiens): 4.34 nM | IC50 ([6]; Homo sapiens): 2.06 nM

CC[C@@]1(O)C(=O)OCc2c1cc1n(c2=O)Cc2c-1nc1cc(F)c(C)c3c1c2[C@H](NC(=O)C(C)(F)F)CC3 [Compound 6, 2′,2′-difluoropropionyl exatecan]
IC50 ([1]; Homo sapiens): 38.5 nM | IC50 ([2]; Homo sapiens): 7.61 nM | IC50 ([3]; Homo sapiens): 143 nM | IC50 ([4]; Homo sapiens): 0.165 nM | IC50 ([5]; Homo sapiens): 0.615 nM | IC50 ([6]; Homo sapiens): 0.32 nM

CC[C@@]1(O)C(=O)OCc2c1cc1n(c2=O)Cc2c-1nc1cc(F)c(C)c3c1c2[C@@H](NC(=O)CO)CC3 [Dxd, reference compound]
IC50 ([1]; Homo sapiens): 73.6 nM | IC50 ([2]; Homo sapiens): 21.5 nM | IC50 ([3]; Homo sapiens): 207 nM | IC50 ([4]; Homo sapiens): 1.35 nM | IC50 ([5]; Homo sapiens): 6.55 nM | IC50 ([6]; Homo sapiens): 4.46 nM
